Data as given in patent publication US8394825B2, “Compound” (Sterix Limited, priority 2007, dated 2013).

Legend:
E1-STS [1] = biological target: T1, E1-STS (Homo sapiens, UniProt P08842); details: cited from earlier work
T1 sequence (P08842 22-583): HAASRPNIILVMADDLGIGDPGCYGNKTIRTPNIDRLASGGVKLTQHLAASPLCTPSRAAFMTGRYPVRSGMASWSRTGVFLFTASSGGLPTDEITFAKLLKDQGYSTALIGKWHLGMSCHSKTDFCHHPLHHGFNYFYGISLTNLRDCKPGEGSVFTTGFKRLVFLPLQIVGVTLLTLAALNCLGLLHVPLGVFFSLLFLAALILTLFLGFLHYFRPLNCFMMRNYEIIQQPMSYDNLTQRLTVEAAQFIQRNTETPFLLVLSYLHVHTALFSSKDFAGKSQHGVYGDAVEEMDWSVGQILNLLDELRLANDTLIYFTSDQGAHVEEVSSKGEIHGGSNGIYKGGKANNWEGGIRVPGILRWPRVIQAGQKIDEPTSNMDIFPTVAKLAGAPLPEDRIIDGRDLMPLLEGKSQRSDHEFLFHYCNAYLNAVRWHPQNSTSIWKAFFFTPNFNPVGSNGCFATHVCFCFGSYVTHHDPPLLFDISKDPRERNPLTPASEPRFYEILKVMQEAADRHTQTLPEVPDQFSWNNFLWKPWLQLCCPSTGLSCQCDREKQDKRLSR

uterotrophic activity = details: cited from earlier work; for oestrogenicity: rat, in vivo
[2] = cited from earlier work
E1-STS [3] = biological target: T1, E1-STS; parameters: endogenous in cells; host or cells: MCF-7 cells (intact); details: intact MCF-7 cells, 0.1 nM; cited from earlier work
DU145 cells = assay: Antiproliferative assay in DU145 cells, WST-1 cell proliferation assay, 96 hours (GI50); format: cell-based; details: Homo sapiens, DU-145, 96 hours post-treatment, triplicate
Summary of the method: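 DU145 cells seeded at 5000 cells/well, treated with […] compound or vehicle for 96 h. Viability read by WST-1, expressed as percent of mean control, GI50 derived; triplicate experiments.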

Molecule | GI50 (DU145 cells) [µM] | melting point [°C] | mode of E1-STS enzyme inhibition (inactivation) (E1-STS [1]) | further results
COc1cc2c(cc1OS(N)(=O)=O)CC[C@@H]1[C@@H]2CC[C@]2(C)C(=O)CC[C@@H]12 [2-methoxyoestrone-3-O-sulphamate] | – | – | – | potency as steroid sulphatase inhibitor relative to EMATE (E1-STS [1]): equipotent with EMATE; oestrogenicity (uterotrophic activity): devoid of oestrogenicity
oestrone-3-S-sulphamate | – | – | weaker non-time-dependent inactivators | –
C[C@]12CC[C@@H]3c4ccc(OS(=O)(=O)O)cc4CC[C@H]3[C@@H]1CCC2=O [E1S, oestrone sulphate] | – | – | – | half-life in blood [2]: 10 to 12 h
oestrone-3-N-sulphamate | – | – | weaker non-time-dependent inactivators | –
CC12CCC3c4ccc(OS(N)(=O)=O)cc4CCC3C1CCC2=O (stereo not shown) [EMATE, oestrone-3-sulphamate] | – | – | time- and concentration-dependent manner | oestrogenicity (uterotrophic activity): potent oestrogenic properties; oral uterotrophic activity relative to estradiol (uterotrophic activity; rats, oral): 100 times; inhibition of E1-STS activity (E1-STS [3]): more than 99%
COc1cc(CN2CCc3cc(OCc4ccccc4)c(OC)cc3C2=O)cc(OC)c1 [compound 157, 6-(Benzyloxy)-2-(3,5-dimethoxybenzyl)-7-methoxy-3,4-dihydro-2H-isoquinolin-1-one] | > 100 | 82 to 83 | – | –
COc1cccc(COc2cc3c(cc2OC)C(=O)N(Cc2cccc(OC)c2)CC3)c1 [compound 155, 7-Methoxy-2-(3-methoxybenzyl)-6-(3-methoxybenzyloxy)-3,4-dihydro-2H-isoquinolin-1-one] | > 100 | 85 to 86 | – | –

More lines, main results first:

GI50 (DU145 cells) [µM] | melting point [°C] | Molecule | mode of E1-STS enzyme inhibition (inactivation) (E1-STS [1]) | further results
50 to 100 | 104 to 105 | COc1ccc(OC)c(CN2CCc3cc(O)c(OC)cc3C2)c1 [compound 55, 6-Hydroxy-7-methoxy-2-(2,5-dimethoxybenzyl)-1,2,3,4-tetrahydroisoquinoline] | – | –
10 to 50 | 130 to 131 | COc1cc(OC)cc(C(=O)N2CCc3cc(OCc4ccccc4)c(OC)cc3C2)c1 [compound 110, 6-Benzyloxy-2-(3,5-dimethoxybenzoyl)-7-methoxy-1,2,3,4-tetrahydroisoquinoline] | – | –
> 100 | 125 to 127 | COc1cc2c(cc1O)CCN(Cc1cccc(F)c1)C2 [compound 60, 2-(3-Fluorobenzyl)-6-hydroxy-7-methoxy-1,2,3,4-tetrahydroisoquinoline] | – | –
